From patent publication US20250351832A1, “PHYTOCHEMICALS AS BIOPESTICIDES AND BIOSTIMULANTS” (KAY BEE BIO ORGANICS PVT. LTD., priority 2024, published 2025)
Like-named read-outs stand apart in the source and are kept apart here.

Columns and labels:
Alternaria alternata [1] = test: In vitro poisoned food technique against fungus (Ex. 20); type: cell-based; settings: poisoned food technique, PDA medium, dose 1 ml/gm/lit., after seven days
Alternaria alternata [2] = test: Alternaria leaf spot/blight on inoculated tomato plants (Ex. 28); type: in vivo; settings: tomato plants, Alternaria alternata; after 7 days; dose 1 ml/gm/lit
tomato seedlings = test: Response of tomato plants, greenhouse growth (Ex. 30); type: in vivo; settings: tomato seedlings, dose 1 ml/gm/lit
chili seedlings = test: Response of chili plants, greenhouse growth (Ex. 31); type: in vivo; settings: chili seedlings, dose 1 ml/gm/lit
Aphid [3] = settings: Dose 1 ml/gm/lit.
Mite [4] = settings: Dose 1 ml/gm/lit.
Mealy Bug [5] = settings: Mealy Bug on cotton leaves, dose 1 ml/gm/lit., 48 Hrs.
Helicoverpa armigera [6] = settings: Helicoverpa armigera on okra fruits, dose 1 ml/gm/lit., 72 Hrs.
Spodoptera litura [7] = settings: Spodoptera litura on castor leaves; dose 1 ml/gm/lit.; 10 insects/treatment; 72 hrs after application
Thrips [8] = settings: Thrips on cotton leaves; dose 1 ml/gm/lit.; 10 insects/treatment; 48 hrs after application
Aphid [9] = settings: Aphids on cotton plants, green house; dose 1 ml/gm/lit.; 10 insects/plant, 10 plants/treatment; 48 hrs
Mite [10] = settings: mite on okra plants, green house, dose 1 ml/gm/lit. spray
Mealy Bug [11] = settings: mealy bug on cotton plants, green house, dose 1 ml/gm/lit. spray
Helicoverpa armigera [12] = settings: Helicoverpa armigera 3rd instar on chickpea plants, dose 1 ml/gm/lit. spray
Thrips [13] = settings: thrips on cotton plants, greenhouse, dose 1 ml/gm/lit. spray
[14] = Table 13, descriptive; no test described; cited from earlier work
Spodoptera litura [15] = test: whole plant or invertebrate; settings: 72 h
Thrips [16] = test: whole plant or invertebrate; settings: in Gossypium hirsutum, 48 h
Aphid [17] = test: whole plant or invertebrate; settings: 48 h
[18] = 10 insects/treatment, 4 replications
[19] = 48 hrs, corrected for water control
[20] = read-out: % Corrected Mortality at 48 Hrs.
[21] = read-out: % Mortality at 48 Hrs.

## CC1=CC(=O)C(C(C)C)=CC1=O [Thymoquinone]
Alternaria alternata [1]
  Mean colony Diameter (mm): 54.00 mm
Alternaria alternata [1]; vs untreated control, read-out: % Inhibition of growth
  inhibition of growth at 1 mL or g/L: 38.6%
Alternaria alternata [2]
  % Disease reduction over Control: 44.63%
Tomato seedlings; 5th day after application
  Plant Height 5th Day: 6.58 cm
  Stem Girth 5th Day: 1.68 mm
  CCI 5th Day: 14.21
Tomato seedlings; 10th day after application
  Plant Height 10th Day: 7.69 cm
  Stem Girth 10th Day: 2.30 mm
  CCI 10th Day: 16.21
Tomato seedlings; 10th day
  Plant Height % Increase over pre on 10th Day: 41.36%
  Stem Girth % Increase over pre on 10th Day: 74.24%
  CCI % Increase over pre on 10th Day: 30.73%
  Root Length (cm) 10th Day: 4.42 cm
Tomato seedlings; 10th day, vs water control
  Root Length % Increase over control: 32.93%
Chili seedlings; 5th day after application
  CCI 5th Day: 13.76
  Plant Height (cm) 5th Day: 5.77 cm
Chili seedlings; 10th day
  CCI % Increase over pre on 10th Day: 58.19%
  Plant Height % Increase over pre on 10th Day: 63.27%
  Root Lenght (cm) 10th Day: 4.16 cm
  Stem Girth % Increase over pre on 10th Day: 57.48%
Chili seedlings; 10th day after application
  CCI 10th Day: 14
  Plant Height (cm) 10th Day: 6.89 cm
Chili seedlings; 10th day, vs water control
  Root Lenght % Increase over control: 52.17%
Aphid [3]; 10 insects/treatment, 4 replications, cotton leaves
  Total No. of dead insect at 48 Hrs.: 4.75
Aphid [3]; 48 hrs
  % Corrected Mortality at 48 Hrs.: 40.00%
Mite [4]; 10 insects/treatment, 4 replications, okra leaves
  Total No. of dead insect at 48 Hrs.: 3.25
Mite [4]; 48 hrs
  % Corrected Mortality at 48 Hrs.: 27.03%
  % Mortality at 48 Hrs.: 32.50%
Mealy Bug [5]; [18]
  Total No. of dead insect at 48 Hrs.: 5.25
Mealy Bug [5]
  % Mortality at 48 Hrs.: 52.50%
Mealy Bug [5]; corrected for water control
  % Corrected Mortality at 48 Hrs.: 50.00%
Helicoverpa armigera [6]; [18]
  Total No. of dead insect at 72 Hrs.: 4.25
Helicoverpa armigera [6]
  % Mortality at 72 Hrs.: 42.50%
Helicoverpa armigera [6]; corrected for water control
  % Corrected Mortality at 72 Hrs.: 42.50%
Spodoptera litura [7]
  Total No. of dead insect at 72 Hrs.: 4.25
Thrips [8]
  Total No. of dead insect at 48 Hrs.: 2.25
Aphid [9]
  Total No. of dead insect at 48 Hrs.: 47.50
Mite [10]; 48 hrs after application
  % Mortality at 48 Hrs.: 30.00%
  Total No. of dead insect at 48 Hrs.: 30.00
Mite [10]; [19]
  % Corrected Mortality at 48 Hrs.: 26.32%
Mealy Bug [11]; 48 hrs after application
  % Mortality at 48 Hrs.: 50.00%
  Total No. of dead insect at 48 Hrs.: 50.00
Mealy Bug [11]; [19]
  % Corrected Mortality at 48 Hrs.: 44.44%
Helicoverpa armigera [12]; 72 hrs after application
  % Mortality at 72 Hrs.: 45.00%
Helicoverpa armigera [12]; 72 hrs, corrected for water control
  % Corrected Mortality at 72 Hrs.: 45.00%
Thrips [13]; 48 hrs after application
  % Mortality at 48 Hrs.: 20.00%
  Total No. of dead insect at 48 Hrs.: 20.00
Thrips [13]; [19]
  % Corrected Mortality at 48 Hrs.: 11.11%
[14]
  Acaricidal Activity - Mode of action: Contact acaricidal activity
  Antioxidant Activity - Mode of action: Reducing Oxidative Stress
  Bactericidal Activity - Mode of action: Inhibitory effect on spore
  Insecticidal Activities - Mode of action: Decreased larval survival
Spodoptera litura [15]; read-out: % Corrected Mortality at 72 Hrs.
  mortality at 1 mL or g/L: 39.5%
Spodoptera litura [15]; read-out: % Mortality at 72 Hrs.
  mortality at 1 mL or g/L: 42.5%
Thrips [16]; [20]
  mortality at 1 mL or g/L: 11.4%
Thrips [16]; [21]
  mortality at 1 mL or g/L: 22.5%
Aphid [17]; [20]
  mortality at 1 mL or g/L: 38.2%
Aphid [17]; [21]
  mortality at 1 mL or g/L: 47.5%
